Literature values in patent publication US20230106284A1, “SYSTEM AND METHOD FOR GENERATING POTENTIAL DRUG COMPOSITIONS FOR DISEASE TARGET” (Innoplexus AG, priority 2020, published 2023).

Conditions: oral delivery

bioavailability: about 70%
volume of distribution: 14.37±2.69 litter
Compound: O=C(O)c1ccc(-n2nc(-c3ccccc3O)nc2-c2ccccc2O)cc1 [DFX, deferasirox]
